Data reported in patent US20140275539A1, “STABILIZATION OF RADIOIODINATED AND ASTATINATED PHARMACEUTICALS AND IMAGING AGENTS” (priority 2013, published 2014).

How the values were obtained:
[1] = DFT calculation of C—I bond dissociation energy (B3LYP/6-31G(d,p)/MIDI!, Gaussian 03); details: estimated from the DFT data, compound not covered by the calculations
Method: Density Functional Theory (DFT) calculations performed on a variety of model structures strongly support the novelty and uniqueness of this approach. […] Calculations were performed with the Gaussian 03 suite of programs.
Table 2 summarizes results of density functional theory calculations (B3LYP/6-31G(d,p)/MIDI!, thermal and zero point energy corrected) for compounds 1, 7, and 8, showing the dissimilar impact of ortho-chlorine substitution on the strength of the C—I bond. […] Chlorine substitution results in significant C—I bond weakening compared to iodobenzene.
Table 3 depicts the results of density functional theory calculations for compounds 1, 5, and 9-14 (B3LYP/SDD for astatobenzenes, B3LYP/6-31G(d,p)/MIDI! for the iodobenzenes, and B3LYP/6-31G(d,p) for 11-14; thermal and zero point energy corrected) showing how the effect of ortho fluorine substitution falls off as the bond strength of the C—X (where X=halogen) bond increases.
Table 4 depicts results of DFT calculations (B3LYP/6-31G(d,p)/MIDI! for compounds 15-22; thermal and zero point energy corrected) showing how the effect of ortho fluorine applies to heterocyclic systems.
Table 5 depicts results of density functional theory calculations (B3LYP/6-31G(d,p)/MIDI!; thermal and zero point energy corrected) for compounds 23-34, showing how the effect of ortho fluorine substituents applies to five-membered ring heterocycles. […]

[2] = more cytotoxic than ^123I-MIBG; cited from earlier work

| SMILES | C—I bond energy increase over the derivative in which the fluorine substituents are replaced by hydrogen atoms [1] | cytotoxicity relative to ^123I-MIBG [2] |
| --- | --- | --- |
| N[C@@H](Cc1cc(I)c(Oc2ccc(F)c(I)c2F)c(I)c1)C(=O)O | approximately 2.5 kcal/mol |  |
| N=C(N)NCc1cccc([211At])c1 [^211At-MIBG] |  | approximately 1000 times |
